Reference: US11479546B2, “Antimalarial hexahydropyrimidine analogues” (UCB Biopharma SRL, priority 2018, dated 2022)

What follows are molecules tested on Plasmodium falciparum 3D7 (assay: P. falciparum 3D7 asexual blood stage assay, Assay Procedure Version 2 (SYBR green readout)). Conditions: Plasmodium falciparum, 3D7, Erythrocyte, 72 h, Version 2 of the assay procedure (asterisk *); 72 h incubation in infected erythrocytes; 50,000 nM to 15 nM.
Format: cell-based
Description: Asexual Blood Stage Assay
The assay used to measure the effect of test compounds on a bloodstream stage of Plasmodium falciparum 3D7 strain employs SYBR green as the readout. This is a dye that binds to double stranded deoxyribonucleic acid (DNA) with a resulting increase in fluorescence, allowing detection of P. falciparum DNA in infected erythrocytes, and thereby providing a measure of parasite growth and propagation.
P. falciparum Culture Maintenance
Erythrocytes (A+blood) were prepared for both parasite culture and assay by washing 4 times with incomplete media (15.9 g RPMI 1640 (25 mM HEPES, L-glutamine), 1 g NaHCO3, 2 g glucose, 400 μL gentacin (500 mg/mL), 2 mL hypoxanthine solution (13.6 g/L in 0.1M NaOH pH 7.3) in 1 litre of media). The cells were centrifuged at 1800 g for 5 minutes, before decanting the supernatant and re-suspending in fresh incomplete media. On the final wash, the cells were re-suspended in complete media (incomplete media with 5 g/L AlbumaxII), and centrifuged at 1800 g for 3 minutes. This cell sediment was treated as 100% haematocrit.
P. falciparum 3D7 was cultured in erythrocytes at 5% haematocrit in complete media at 37° C. (1% O2, 3% CO2, balance N2). Cultures were split on a weekly basis to achieve a 1% parasitaemia in erythrocites at 5% haematocrit in fresh media. Culture media is replaced by fresh media every other day (2 times during the week).
[formula] where A=% inhibition at bottom; B=% inhibition at top; C=EC50; D=slope; x=inhibitor concentration; and y=% inhibition. […] Assay Procedure—Version 2
On day 1, test compounds were added to assay plates using Echo dispensing technology ([…] and 20 points titration). 50 nL of each compound dilution was added to 50 μL of culture (5% haematocrit, 0.5% parasitaemia) and incubated for 72 h at 37° C. (1% O2, 3% CO2, balance N2). Final concentrations of test compounds ranged from 50,000 nM to 15 nM, in […].
On day 4, 10 μL SYBR green (Invitrogen S7563 supplied as 10,000× concentrate in DMSO) pre-diluted to 3× concentrate with Lysis buffer (20 mM Tris pH 7.9, 5% EDTA, 0.16% w/v, 1.6% TX100 v/v) was added to the cultures and incubated in the dark, overnight, at room temperature.
On day 5, fluorescent signal was measured using a BioTek plate reader (excitation 485 nm, emission 528 nm). All data were processed using IDBS ActivityBase. Raw data were converted into percent inhibition through linear regression by setting the high inhibition control (mefloquine) as 100% and the no inhibition control (DMSO) as 0%. Quality control criteria for passing plates were as follows: Z′>0.5, S:B>3, % CV(no inhibition control)<15. The formula used to calculate Z′ is:
[formula] where μ denotes the mean; σ denotes the standard deviation; p denotes the positive control; and n denotes the negative control.
All EC50 curve fitting was undertaken using the following bi-phasic two site dose response using XLfit model 300 (IDBS):
[formula] where A=100 minus the top of the upper curve 1 and the bottom of lower curve; B=Hill slope; log(C)=IC50 concentration at lower site; log(D)=IC50 concentration at upper site; x=inhibitor concentration; and y=% inhibition.

Question: `C[C@@]1(c2cccc(Nc3cnccc3C(F)(F)F)c2Cl)CC(=O)N(C2CCOCC2)C(=N)N1` [Example 56, (6S)-6-(2-Chloro-3-{[4-(trifluoromethyl)pyridin-3-yl]-amino}phenyl)-2-imino-6-methyl-3-(tetrahydropyran-4-yl)hexahydropyrimidin-4-one] was tested. Which IC50 did it give?
Answer: 0.253 µM

Question: `C[C@@]1(c2cccc(Nc3cccc(Oc4ccccc4)c3)c2Cl)CC(=O)N(C2CCOCC2)C(=N)N1` [Example 75, (6S)-6-[2-Chloro-3-(3-phenoxy-anilino)phenyl]-2-imino-6-methyl-3-(tetrahydropyran-4-yl)hexahydropyrimidin-4-one] was tested. Which IC50 did it give?
Answer: 1.46 µM

Question: For `Cn1ncc2cc(Nc3cccc([C@]4(C)CC(=O)N(C5CCOCC5)C(=N)N4)c3Cl)cnc21` [Example 115, (6S)-6-{2-Chloro-3-[(1-methyl-pyrazolo[3,4-b]pyridin-5-yl)-amino]phenyl}-2-imino-6-methyl-3-(tetrahydropyran-4-yl)hexahydropyrimidin-4-one], which IC50 is on record?
Answer: 0.668 µM

Question: With `C[C@@]1(c2cccc(Nc3ccc(Cl)cn3)c2Cl)CC(=O)N(C2CCOCC2)C(=N)N1` [Example 182, (6S)-6-{2-Chloro-3-[(5-chloro-pyridin-2-yl)amino]phenyl}-2-imino-6-methyl-3-(tetrahydro-yran-4-yl)-hexahydropyrimidin-4-one] as the molecule, how does the IC50 read?
Answer: 0.466 µM

Question: Which IC50 does the source give for `C[C@@]1(c2cccc(Nc3ccc(C4CC4)nn3)c2Cl)CC(=O)N(C2CCOCC2)C(=N)N1` [Example 197, (6S)-6-{2-Chloro-3-[(6-cyclo-propylpyridazin-3-yl)amino]-phenyl}-2-imino-6-methyl-3-(tetrahydropyran-4-yl)-hexahydropyrimidin-4-one] here?
Answer: 0.536 µM

Question: `C[C@@]1(c2cccc(Nc3ccc(F)cc3OC(F)F)c2Cl)CC(=O)N(C2CCOCC2)C(=N)N1` [Example 92, (6S)-6-{2-Chloro-3-[2-(difluoro-methoxy)-4-fluoro-anilino]-phenyl}-2-imino-6-methyl-3-(tetrahydropyran-4-yl)-hexahydropyrimidin-4-one] was tested. Which IC50 did it give?
Answer: 0.461 µM

Question: Which IC50 does the source give for `C[C@@H]1C[C@H](N2C(=N)N[C@](C)(c3cccc(Nc4ccc(OCC(F)(F)F)nn4)c3Cl)CC2=O)CCO1` (relative stereo) [Example 202, (6S)-6-(2-Chloro-3-{[6-(2,2,2-trifluoroethoxy)pyridazin-3-yl]-amino}phenyl)-2-imino-6-methyl-3-[(2R*,4R*)-2-methyl-tetrahydropyran-4-yl]-hexahydropyrimidin-4-one] here?
Answer: 0.112 µM

Question: Which IC50 does the source give for `C[C@@]1(c2cccc(Nc3ccc(-c4ccccc4)cc3)c2Cl)CC(=O)N(C2CCOCC2)C(=N)N1` [Example 71, (6S)-6-[2-Chloro-3-(4-phenyl-anilino)phenyl]-2-imino-6-methyl-3-(tetrahydropyran-4-yl)hexahydropyrimidin-4-one] here?
Answer: 3.53 µM

Question: With `Cc1ccc(Nc2cccc([C@]3(C)CC(=O)N([C@H]4C[C@@](C)(O)C4)C(=N)N3)c2Cl)cn1` [Example 125, (6S)-6-{2-Chloro-3-[(6-methyl-pyridin-3-yl)amino]phenyl}-3-(3-hydroxy-3-methylcyclo-butyl)-2-imino-6-methyl-hexahydropyrimidin-4-one] as the molecule, how does the IC50 read?
Answer: 1.1 µM

Question: `COc1ncccc1Nc1cccc([C@]2(C)CC(=O)N(C3CCOCC3)C(=N)N2)c1Cl` [Example 50, (6S)-6-{2-Chloro-3-[(2-methoxypyridin-3-yl)amino]-phenyl}-2-imino-6-methyl-3-(tetrahydropyran-4-yl)-hexahydropyrimidin-4-one] was tested. Which IC50 did it give?
Answer: 0.373 µM

Question: For `C[C@@]1(c2cccc(Nc3cccc4c3OC(F)(F)O4)c2Cl)CC(=O)N(C2CCOCC2)C(=N)N1` [Example 68, (6S)-6-{2-Chloro-3-[(2,2-difluoro-1,3-benzodioxol-4-yl)amino]phenyl}-2-imino-6-methyl-3-tetrahydropyran-4-yl-hexahydropyrimidin-4-one], which IC50 is on record?
Answer: 0.524 µM

Question: How did the IC50 turn out when `Cc1cnc(Nc2cccc([C@]3(C)CC(=O)N(C4CCOCC4)C(=N)N3)c2Cl)cn1` [Example 44, (6S)-6-{2-Chloro-3-[(5-methyl-pyrazin-2-yl)amino]phenyl}-2-imino-6-methyl-3-(tetrahydro-pyran-4-yl)hexahydropyrimidin-4-one] was run?
Answer: 0.815 µM

Question: `C[C@@]1(c2cccc(Nc3cccc(-c4ccno4)c3)c2Cl)CC(=O)N(C2CCOCC2)C(=N)N1` [Example 61, (6S)-6-{2-Chloro-3-[3-(isoxazol-5-yl)anilino]phenyl}-2-imino-6-methyl-3-(tetrahydro-pyran-4-yl)hexahydropyrimidin-4-one] was tested. Which IC50 did it give?
Answer: 0.753 µM

Question: `CC(C)(C)c1ccc(Nc2cccc([C@]3(C)CC(=O)N(C4CCOCC4)C(=N)N3)c2Cl)cn1` [Example 105, (6S)-6-{3-[(6-tert-Butylpyridin-3-yl)amino]-2-chlorophenyl}-2-imino-6-methyl-3-(tetrahydro-pyran-4-yl)hexahydropyrimidin-4-one] was tested. Which IC50 did it give?
Answer: 0.318 µM

Question: `C[C@@]1(c2cccc(Nc3ccc(C#N)cc3OC(F)F)c2Cl)CC(=O)N(C2CCOCC2)C(=N)N1` [Example 96, 4-{2-Chloro-3-[(4S)-2-imino-4-methyl-6-oxo-1-(tetrahydro-pyran-4-yl)hexahydropyrimidin-4-yl]anilino}-3-(difluoro-methoxy)benzonitrile] was tested. Which IC50 did it give?
Answer: 0.195 µM

Question: `C[C@@]1(c2cccc(Nc3ncc4ccccn34)c2Cl)CC(=O)N(C2CCOCC2)C(=N)N1` [Example 187, (6S)-6-[2-Chloro-3-(imidazo-[1,5-a]pyridin-3-ylamino)-phenyl]-2-imino-6-methyl-3-(tetrahydropyran-4-yl)-hexahydropyrimidin-4-one] was tested. Which IC50 did it give?
Answer: 0.385 µM

Question: Which IC50 does the source give for `Cc1cc(Cl)c(Nc2cccc([C@]3(C)CC(=O)N(C4CCOCC4)C(=N)N3)c2Cl)cn1` [Example 110, (6S)-6-{2-Chloro-3-[(4-chloro-6-methylpyridin-3-yl)amino]-phenyl}-2-imino-6-methyl-3-(tetrahydropyran-4-yl)-hexahydropyrimidin-4-one] here?
Answer: 0.227 µM

Question: For `Cn1cc2c(Nc3cccc([C@]4(C)CC(=O)N(C5CCOCC5)C(=N)N4)c3Cl)cccc2n1` [Example 77, (6S)-6-{2-Chloro-3-[(2-methyl-indazol-4-yl)amino]phenyl}-2-imino-6-methyl-3-(tetrahydro-pyran-4-yl)hexahydropyrimidin-4-one], which IC50 is on record?
Answer: 0.791 µM

Question: For `C[C@@]1(c2cccc(Nc3ccn4ccnc4c3)c2Cl)CC(=O)N(C2CCOCC2)C(=N)N1` [Example 108, (6S)-6-[2-Chloro-3-(imidazo-[1,2-a]pyridin-7-ylamino)-phenyl]-2-imino-6-methyl-3-(tetrahydropyran-4-yl)-hexahydropyrimidin-4-one], which IC50 is on record?
Answer: 2.04 µM

Question: With `C[C@@]1(c2cccc(Nc3ccc(F)cc3)c2Cl)CC(=O)N(C2CC(O)(C(F)(F)F)C2)C(=N)N1` [Example 179, (6S)-6-[2-Chloro-3-(4-fluoro-anilino)phenyl]-3-[3-hydroxy-3-(trifluoromethyl)cyclobutyl]-2-imino-6-methyl-hexahydro-pyrimidin-4-one (cis isomer)] as the molecule, how does the IC50 read?
Answer: 0.381 µM

Question: Which IC50 does the source give for `C[C@@]1(c2cccc(Nc3ccc4ncnn4c3)c2Cl)CC(=O)N(C2CCOCC2)C(=N)N1` [Example 85, (6S)-6-[2-Chloro-3-([1,2,4]-triazolo[1,5-a]pyridin-6-yl-amino)phenyl]-2-imino-6-methyl-3-(tetrahydropyran-4-yl)hexahydropyrimidin-4-one] here?
Answer: 1.79 µM

Question: How did the IC50 turn out when `C[C@@H]1C[C@H](N2C(=N)N[C@](C)(c3cccc(Nc4ccc(OC(F)F)nc4)c3Cl)CC2=O)CCO1` (stereo in doubt) [Example 138, (6S)-6-(2-Chloro-3-{[6-(difluoromethoxy)pyridin-3-yl]-amino}phenyl)-2-imino-6-methyl-3-[(cis)-2-methyl-tetrahydropyran-4-yl]-hexahydropyrimidin-4-one] was run?
Answer: 0.019 µM

Question: For `Cc1ccc(Nc2cccc([C@]3(C)CC(=O)N([C@H]4C[C@](O)(C(C)C)C4)C(=N)N3)c2Cl)cn1` [Example 134, (6S)-6-{2-Chloro-3-[(6-methyl-pyridin-3-yl)amino]phenyl}-3-(3-hydroxy-3-isopropylcyclo-butyl)-2-imino-6-methyl-hexahydropyrimidin-4-one], which IC50 is on record?
Answer: 3.97 µM
